# In ChEMBL document CHEMBL1799925, “Inhibition of sphingosine 1-phosphate lyase for the treatment of rheumatoid arthritis: discovery of (E)-1-(4-((1R,2S,3R)-1,2,3,4-tetrahydroxybutyl)-1H-imidazol-2-yl)ethanone oxime (LX2931) and (1R,2S,3R)-1-(2-(isoxazol-3-yl)-1H-imidazol-4-yl)butane-1,2,3,4-tetraol (LX2932)” (J Med Chem, 2010):
# Columns and labels:
# [1] = Half life in 129/SvEvBrd X C57BL/6 F1 mouse at 10 mg/kg, po by LC/MS/MS analysis; type: ADME, organism-based; parameters: dose 10 mg/kg, route oral; settings: in vivo
# [2] = Cmax in 129/SvEvBrd X C57BL/6 F1 mouse at 10 mg/kg, po by LC/MS/MS analysis; type: ADME, organism-based; parameters: dose 10 mg/kg, route oral; settings: in vivo
# [3] = Tmax in 129/SvEvBrd X C57BL/6 F1 mouse at 10 mg/kg, po by LC/MS/MS analysis; type: ADME, organism-based; parameters: dose 10 mg/kg, route oral; settings: in vivo
# [4] = Volume of distribution at steady state in 129/SvEvBrd X C57BL/6 F1 mouse at 1 mg/kg, iv by LC/MS/MS analysis; type: ADME, organism-based; parameters: dose 1 mg/kg, route intravenous; settings: in vivo, read-out: Vdss
# [5] = Clearance in 129/SvEvBrd X C57BL/6 F1 mouse at 1 mg/kg, iv by LC/MS/MS analysis; type: ADME, organism-based; parameters: dose 1 mg/kg, route intravenous; settings: in vivo
# [6] = Bioavailability in 129/SvEvBrd X C57BL/6 F1 mouse determined from 1 mg/kg, iv and 10 mg/kg, po by LC/MS/MS analysis; type: ADME, organism-based; settings: 129/SvEvBrd X C57BL/6 F1, mouse, in vivo
# [7] = Tmax in Sprague-Dawley rat at 10 mg/kg, po by LC/MS/MS analysis; type: ADME, organism-based; parameters: dose 10 mg/kg, route oral; settings: in vivo
# [8] = Cmax in Sprague-Dawley rat at 10 mg/kg, po by LC/MS/MS analysis; type: ADME, organism-based; parameters: dose 10 mg/kg, route oral; settings: in vivo
# [9] = AUC (0 to infinity) in Sprague-Dawley rat at 10 mg/kg, po by LC/MS/MS analysis; type: ADME, organism-based; parameters: time infinity, dose 10 mg/kg, route oral; settings: plasma
# [10] = tested on: Rattus norvegicus; assay: Volume of distribution at steady state in Sprague-Dawley rat at 10 mg/kg, po by LC/MS/MS analysis; type: ADME, organism-based; parameters: dose 10 mg/kg, route oral; settings: in vivo
# [11] = Clearance in Sprague-Dawley rat at 1 mg/kg, iv by LC/MS/MS analysis; type: ADME, organism-based; parameters: dose 1 mg/kg, route intravenous; settings: in vivo
# [12] = Oral bioavailability in Sprague-Dawley rat determined from 1 mg/kg, iv and 10 mg/kg, po by LC/MS/MS analysis; type: ADME, organism-based; settings: in vivo
# [13] = Tmax in Beagle dog at 50 mg/kg, po by LC/MS/MS analysis; type: ADME, organism-based, Canis lupus familiaris; parameters: dose 50 mg/kg, route oral; settings: in vivo
# [14] = Cmax in Beagle dog at 50 mg/kg, po by LC/MS/MS analysis; type: ADME, organism-based, Canis lupus familiaris; parameters: dose 50 mg/kg, route oral; settings: in vivo
# [15] = AUC (0 to infinity) in Beagle dog at 50 mg/kg, po by LC/MS/MS analysis; type: ADME, organism-based, Canis lupus familiaris; parameters: dose 50 mg/kg, route oral, time infinity; settings: plasma
# [16] = tested on: Canis familiaris; assay: Volume of distribution at steady state in Beagle dog at 50 mg/kg, po by LC/MS/MS analysis; type: ADME, organism-based, Canis lupus familiaris; parameters: dose 50 mg/kg, route oral; settings: in vivo
# [17] = Clearance in Beagle dog at 1 mg/kg, iv by LC/MS/MS analysis; type: ADME, organism-based, Canis lupus familiaris; parameters: dose 1 mg/kg, route intravenous; settings: in vivo
# [18] = Bioavailability in Beagle dog determined from 1 mg/kg, iv and 50 mg/kg, po by LC/MS/MS analysis; type: ADME, organism-based, Canis lupus familiaris; settings: in vivo
# [19] = Tmax in cynomolgus monkey at 30 mg/kg, po by LC/MS/MS analysis; type: ADME, organism-based, Macaca fascicularis; parameters: dose 30 mg/kg, route oral; settings: in vivo
# [20] = Cmax in cynomolgus monkey at 30 mg/kg, po by LC/MS/MS analysis; type: ADME, organism-based, Macaca fascicularis; parameters: dose 30 mg/kg, route oral; settings: in vivo
# [21] = AUC (0 to infinity) in cynomolgus monkey at 30 mg/kg, po by LC/MS/MS analysis; type: ADME, organism-based, Macaca fascicularis; parameters: dose 30 mg/kg, route oral, time infinity; settings: plasma
# [22] = tested on: Cynomolgus monkey; assay: Volume of distribution at steady state in cynomolgus monkey at 30 mg/kg, po by LC/MS/MS analysis; type: ADME, organism-based, Macaca fascicularis; parameters: dose 30 mg/kg, route oral; settings: in vivo
# [23] = Clearance in cynomolgus monkey at 1 mg/kg, iv by LC/MS/MS analysis; type: ADME, organism-based, Macaca fascicularis; parameters: dose 1 mg/kg, route intravenous; settings: in vivo
# [24] = Bioavailability in cynomolgus monkey determined from 1 mg/kg, iv and 30 mg/kg, po by LC/MS/MS analysis; type: ADME, organism-based, Macaca fascicularis; settings: in vivo
# [25] = Tmax in healthy human at 1 mg/kg, po by LC/MS/MS analysis; type: ADME, organism-based; parameters: dose 1 mg/kg, route oral; settings: in vivo
# [26] = Cmax in healthy human at 1 mg/kg, po by LC/MS/MS analysis; type: ADME, organism-based; parameters: dose 1 mg/kg, route oral; settings: in vivo
# [27] = AUC (0 to infinity) in healthy human at 1 mg/kg, po by LC/MS/MS analysis; type: ADME, organism-based; parameters: time infinity, dose 1 mg/kg, route oral; settings: plasma
# [28] = tested on: Rattus norvegicus; assay: Increase in S1P level in Sprague-Dawley rat thymus at 30 mg/kg, po administered daily for 3 days measured after 18 hrs […] relative to untreated control; type: functional
# [29] = tested on: Rattus norvegicus; assay: Increase in S1P level in Sprague-Dawley rat spleen at 30 mg/kg, po administered daily for 3 days measured after 18 hrs […] relative to untreated control; type: functional
# [30] = tested on: Rattus norvegicus; assay: Increase in S1P level in Sprague-Dawley rat jejunum at 30 mg/kg, po administered daily for 3 days measured after 18 hrs […] relative to untreated control; type: functional
# [31] = tested on: Mus musculus; assay: Immunomodulatory activity in mouse assessed as induction of lymphopenia at 30 to 100 mg/kg, po administered as single dose measured after 18 hrs; type: functional; settings: dose mg/kg 30-100
# [32] = tested on: Mus musculus; assay: Antiarthritic activity in […] collagen-induced arthritic mouse assessed as decrease in circulating T cells at 100 mg/kg, po qd administered one day before collagen challenge; type: functional, T-cell; parameters: scale not given: the % may be the effect or the level left
# [33] = tested on: Canis familiaris; assay: Cardiotoxicity in Beagle dog assessed as increase in heart rate at 500 mg/kg, po administered as single dose after 24 hrs by electrocardiogram analysis; type: toxicity, organism-based, Canis lupus familiaris; parameters: dose 500 mg/kg, route oral; settings: in vivo
# [34] = tested on: Cynomolgus monkey; assay: Cardiotoxicity in cynomolgus monkey assessed as increase in heart rate at 1000 mg/kg, po administered as single dose after 24 hrs by electrocardiogram analysis; type: toxicity, organism-based, Macaca fascicularis; parameters: dose 1000 mg/kg, route oral; settings: in vivo
# [35] = tested on: Homo sapiens; assay: Immunomodulatory activity in arthritic patient assessed as decrease in peripheral lymphocytes at […], po administered as single dose after 48 hrs; type: functional; parameters: scale not given: the % may be the effect or the level left
# [36] = tested on: Homo sapiens; assay: Toxicity in arthritic patient assessed as tolerability at […], po administered as single dose; type: organism-based; parameters: route oral; settings: in vivo
# [37] = tested on: Mus musculus; assay: Immunomodulatory activity in 129/SvEvBrd X C57BL/6 F1 mouse assessed as decrease in peripheral blood lymphocyte count at 30 mg/kg, po measured after 18 hrs by complete blood count analysis relative to control; type: ADME, organism-based; parameters: dose 30 mg/kg, route oral; scale not given: the % may be the effect or the level left; settings: in vivo
# [38] = AUC (0 to infinity) in 129/SvEvBrd X C57BL/6 F1 mouse at 10 mg/kg, po by LC/MS/MS analysis; type: ADME, organism-based, Plasma; parameters: time infinity, dose 10 mg/kg, route oral; settings: 129/SvEvBrd X C57BL/6 F1, mouse, plasma
compound,measurement,setting,value
C/C(=N\O)c1nc([C@@H](O)[C@H](O)[C@H](O)CO)c[nH]1.Cl,half-life,[1],1.6 h
same,Cmax,[2],3.6 µM
same,Tmax,[3],0.45 h
same,Vd,[4],0.9 L/kg
same,clearance,[5],7.6 mL/min/kg
same,bioavailability,[6],6.8%
same,Tmax,[7],2 h
same,Cmax,[8],2.7 µM
same,AUC(0-inf),[9],18.7 µM·h
same,Vdss,[10],0.6 L/kg
same,clearance,[11],10.2 mL/min/kg
same,bioavailability,[12],26%
same,Tmax,[13],2 h
same,Cmax,[14],79.5 µM
same,AUC(0-inf),[15],323 µM·h
same,Vdss,[16],0.3 L/kg
same,clearance,[17],3.5 mL/min/kg
same,bioavailability,[18],32.1%
same,Tmax,[19],2.3 h
same,Cmax,[20],16.9 µM
same,AUC(0-inf),[21],70.1 µM·h
same,Vdss,[22],0.5 L/kg
same,clearance,[23],4.8 mL/min/kg
same,bioavailability,[24],16.4%
same,Tmax,[25],2 h
same,Cmax,[26],3 µM
same,AUC(0-inf),[27],19 µM·h
same,fold change (FC),[28],80
same,fold change (FC),[29],24
same,fold change (FC),[30],45
same,Activity,[31],40%
same,Activity,[32],40%
same,Activity,[33],Non-toxic
same,Activity,[34],Non-toxic
same,Activity,[35],50%
same,Activity,[36],Non-toxic
same,Activity,[37],-60%
same,AUC(0-inf),[38],8.8 µM·h
